# Patent US10624947B2, “Bactericidal peptides and uses thereof” (INDIANA UNIVERSITY RESEARCH AND TECHNOLOGY CORPORATION, priority 2016, dated 2020)
# Like-named read-outs stand apart in the source and are kept apart here. Ends that are not written are not given here.
# Legend:
# Klebsiella pneumoniae = settings: Table 5
# Procedure: (§1) Antimicrobial activity was determined using the broth microdilution method based on the general recommendation of the Clinical and Laboratory Standards Institute. Bacteria were grown in Mueller-Hinton broth at 37° C. until OD625 reached 0.06, and then bacteria were further diluted into 1:20 for later use. […] 10 microliter (μL) of diluted bacteria was mixed with 90 μL of peptides at varying concentrations followed by incubation at 37° C. for 16-18 hours. The MIC is the lowest peptide concentration at which visible growth was inhibited. The MIC value was determined at least twice in independent experiments and typically in 3-4 assays.
# [1] = test system: human red blood cells (hRBCs); assay: Hemolytic activity; format: cell-based
# Procedure: The amount of hemoglobin released was measured by the absorbance at 435 nm after a 60-minute incubation with the antimicrobial peptide. The percentage of hRBC lysis was normalized to the amount hemoglobin released by the suspension of the hRBCs in deionized water. The background amount of hRBC lysis was determined by adding phosphate buffered saline (PBS) at the same volume as 8 μM of the peptide to the hRBC for 1 h.
# The hemolytic activities of peptides were determined using human red blood cells (hRBCs) (Innovative Research, Inc., cat. # IPLA-WB3-18103). The hRBCs were washed three times with PBS and then resuspended in PBS. The hRBCs solution was mixed with serial dilutions of the peptides in PBS buffer. The reaction mixtures were incubated for 45 min at 37° C. After centrifugation at 94×g for 10 min, the intact hRBCs were pelleted and the hemoglobin released from hRBCs was monitored by measuring the absorbance of the supernatant at 415 nm. The background level of absorbance was measured in sampled incubated with only PBS buffer. 100% hemolysis was determined in sampled incubated with water. The percentage of hemolysis was calculated according to the following equation. Percentage of hemolysis=[(Asample−Ablank)/Awater]*100%
# Mammalian cells are thought to be less susceptible to cathelicidin peptides in part because the composition of their membrane will be less likely to interact with the peptides. To address this directly, human red blood cells (hRBCs) were tested for lysis after a 45-minute incubation with the peptides. The total lysis of hRBCs was determined by adding water to the cells. The amount of lysis during handling was determined by the addition of phosphate buffered saline at the same volume as that of the peptides.
# Cultured human cells = assay: MTT cytotoxicity assay; format: cell-based
# Procedure for Escherichia coli: as §1
Substance,"MIC (Escherichia coli; Table 5, Escherichia coli ATCC25922, antibiotic resistance none)","MIC (Klebsiella pneumoniae; Klebsiella pneumonia 27, Carbapenem resistant)","MIC (Klebsiella pneumoniae; Klebsiella pneumonia 49, Carbapenem resistant)","MIC (Klebsiella pneumoniae; Klebsiella pneumonia 83, Carbapenem resistant)","MIC (Klebsiella pneumoniae; Klebsiella pneumonia 84, Carbapenem resistant)","MIC (Klebsiella pneumoniae; Klebsiella pneumonia 88, Carbapenem resistant (NDM1+))","MIC (Klebsiella pneumoniae; Klebsiella pneumonia 262, Carbapenem resistant (NDM1+))",RBC lysis [1],"Cytotoxicity, MTT assay (Cultured human cells)",Minimal inhibitory concentration (Escherichia coli),Minimal inhibitory concentration (Escherichia coli; E. coli ATCC 35218),Minimal inhibitory concentration (Escherichia coli; E. coli ATCC 25922),Minimal inhibitory concentration (Escherichia coli; E. coli IU0342)
Colistin sulfate [reference compound],1 µM,>32 µM,4 µM,2 µM,2 µM,16 µM,16 µM,,,,,,
GRAKRLRKKLKKLAKKLSPVIPLLHLG [BMAP-27C],,,,,,,,decreased RBC lysis compared to the control H2O,no increased cytotoxicity compared to the controls,32 µg/mL,4 µg/mL,,
"GRFKRFRKKFKKLFKKLSPVIPLLHLG [BMAP-27, reference compound]",,,,,,,,decreased RBC lysis compared to the control H2O,no increased cytotoxicity compared to the controls,8 µg/mL,,,
GRFKRLRKKFKKLFKKLSPVIPLLHLG [BMAP-27A],,,,,,,,decreased RBC lysis compared to the control H2O,no increased cytotoxicity compared to the controls,8 µg/mL,2 µg/mL,2 µg/mL,2 µg/mL
